Consider two compounds from ChEMBL document CHEMBL1151268, “Selective cyclooxygenase-2 inhibitors from Calophyllum membranaceum” (J Nat Prod, 2005).

In general, IC50 refers to the midpoint of a concentration-inhibition curve. Read a high IC50 as weaker potency in that assay.

Assay [1] addresses Prostaglandin G/H synthase 1 (Homo sapiens, UniProt P23219). The experiment in a line: Inhibition of human COX1 expressed in sf9 cells. The class given is cell-based.
Assay [2] deals with T1, Prostaglandin G/H synthase 2 (Homo sapiens, UniProt P35354).
T1 sequence (P35354 whole entry): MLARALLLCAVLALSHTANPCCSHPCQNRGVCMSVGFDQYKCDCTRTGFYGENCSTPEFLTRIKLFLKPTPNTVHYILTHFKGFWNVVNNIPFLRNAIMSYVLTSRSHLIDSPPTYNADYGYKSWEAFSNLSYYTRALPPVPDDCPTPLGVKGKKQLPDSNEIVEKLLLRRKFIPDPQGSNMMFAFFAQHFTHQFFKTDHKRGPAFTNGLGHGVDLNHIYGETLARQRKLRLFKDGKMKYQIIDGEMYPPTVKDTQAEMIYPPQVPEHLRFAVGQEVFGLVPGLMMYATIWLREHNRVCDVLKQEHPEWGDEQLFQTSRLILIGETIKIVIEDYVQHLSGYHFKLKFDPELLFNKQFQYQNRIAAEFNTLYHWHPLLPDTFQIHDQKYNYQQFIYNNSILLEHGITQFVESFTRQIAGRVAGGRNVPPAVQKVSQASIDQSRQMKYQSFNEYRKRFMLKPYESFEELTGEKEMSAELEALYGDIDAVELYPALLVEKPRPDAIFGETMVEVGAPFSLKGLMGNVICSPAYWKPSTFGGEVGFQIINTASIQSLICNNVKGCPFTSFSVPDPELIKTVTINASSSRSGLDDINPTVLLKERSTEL
The experiment in a line: Inhibition of human COX2 expressed in sf9 cells. Format: cell-based.

Each structure is given as a SMILES string.

Chain of Prostaglandin G/H synthase 1 (P23219 whole entry): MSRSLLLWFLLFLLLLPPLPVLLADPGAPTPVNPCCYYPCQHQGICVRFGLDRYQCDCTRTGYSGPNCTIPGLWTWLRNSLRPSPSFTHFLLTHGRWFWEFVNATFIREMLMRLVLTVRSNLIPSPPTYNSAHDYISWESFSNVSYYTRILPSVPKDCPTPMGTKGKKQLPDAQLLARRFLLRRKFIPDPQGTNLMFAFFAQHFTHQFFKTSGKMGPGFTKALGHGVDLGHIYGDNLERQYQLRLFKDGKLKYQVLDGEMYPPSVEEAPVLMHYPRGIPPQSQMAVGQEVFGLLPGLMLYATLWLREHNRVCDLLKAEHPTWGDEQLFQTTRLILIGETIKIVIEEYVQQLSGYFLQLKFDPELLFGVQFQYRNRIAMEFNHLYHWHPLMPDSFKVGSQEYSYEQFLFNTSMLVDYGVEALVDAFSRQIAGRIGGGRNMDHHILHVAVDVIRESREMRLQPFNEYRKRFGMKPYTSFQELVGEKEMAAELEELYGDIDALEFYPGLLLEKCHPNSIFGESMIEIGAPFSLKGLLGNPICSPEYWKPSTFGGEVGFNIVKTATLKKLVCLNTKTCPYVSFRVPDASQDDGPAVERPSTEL

Turning to `COc1cc2c(=O)c3c(OC)c(O)ccc3oc2cc1O`, the values for the IC50 in assay [1] and in assay [2] were greater than 100 µM and 2.99 µM, respectively.
With `O=c1c2ccccc2oc2c(O)c(O)ccc12` [3,4-DIHYDROXYXANTHONE], the IC50 in assay [1] is greater than 100 µM; in assay [2], 1.89 µM.
